Laboratory results as given in patent publication US8134015B2, “Compound inhibiting in vivo phosphorous transport and medicine containing the same” (Kyowa Hakko Kirin Co., Ltd., priority 2003, dated 2012).

What was measured:
[1] = biological target: T1, rat NaPi-2b (Rattus norvegicus, UniProt Q9JJ09); assay: Sodium-dependent phosphate uptake of Xenopus oocytes which expressed NaPi-2b (32P); assay type: cell-based; conditions: Xenopus oocytes expressing rat NaPi-2b, 32P radioactive phosphorus; read-out: IC50 (phosphate uptake inhibitory activity)
T1 construct: expressed in transfected cells; host or cells: Xenopus oocytes injected with cRNA
T1 sequence (Q9JJ09 1-695): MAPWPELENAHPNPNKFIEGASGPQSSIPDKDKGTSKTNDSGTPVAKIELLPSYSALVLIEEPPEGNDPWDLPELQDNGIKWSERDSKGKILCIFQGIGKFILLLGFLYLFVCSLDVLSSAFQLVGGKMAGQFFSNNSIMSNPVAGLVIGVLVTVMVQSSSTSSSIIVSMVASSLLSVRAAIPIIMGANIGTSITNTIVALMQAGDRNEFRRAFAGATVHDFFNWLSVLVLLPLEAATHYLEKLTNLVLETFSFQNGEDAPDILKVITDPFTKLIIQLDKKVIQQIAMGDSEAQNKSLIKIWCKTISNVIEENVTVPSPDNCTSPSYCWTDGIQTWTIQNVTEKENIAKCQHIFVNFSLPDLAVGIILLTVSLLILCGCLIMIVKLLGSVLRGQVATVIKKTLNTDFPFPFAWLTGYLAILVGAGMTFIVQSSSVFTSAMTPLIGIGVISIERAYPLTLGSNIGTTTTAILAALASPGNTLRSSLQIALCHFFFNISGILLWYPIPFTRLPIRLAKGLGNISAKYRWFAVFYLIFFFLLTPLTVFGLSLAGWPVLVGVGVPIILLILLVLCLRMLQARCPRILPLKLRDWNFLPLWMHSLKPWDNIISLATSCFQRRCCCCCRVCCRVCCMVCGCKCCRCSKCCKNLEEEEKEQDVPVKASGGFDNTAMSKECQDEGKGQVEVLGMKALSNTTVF
Method in brief: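 Rat NaPi-2b cloned from small-intestine cDNA; cRNA injected into Xenopus oocytes, expression for 2 days. Phosphate uptake inhibition measured with 32P; percent inhibition at 300 μM and 100 μM read from the same inhibition curve.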

[2] = biological target: T2, human NaPi-2a (Homo sapiens, UniProt Q06495); assay: Sodium-dependent phosphate uptake of Xenopus oocytes which expressed NaPi-2a (32P); assay type: cell-based; conditions: Xenopus oocytes expressing human NaPi-2a; for IC50: phosphate uptake, five concentration levels
T2 construct: expressed in transfected cells
T2 sequence (Q06495 1-639): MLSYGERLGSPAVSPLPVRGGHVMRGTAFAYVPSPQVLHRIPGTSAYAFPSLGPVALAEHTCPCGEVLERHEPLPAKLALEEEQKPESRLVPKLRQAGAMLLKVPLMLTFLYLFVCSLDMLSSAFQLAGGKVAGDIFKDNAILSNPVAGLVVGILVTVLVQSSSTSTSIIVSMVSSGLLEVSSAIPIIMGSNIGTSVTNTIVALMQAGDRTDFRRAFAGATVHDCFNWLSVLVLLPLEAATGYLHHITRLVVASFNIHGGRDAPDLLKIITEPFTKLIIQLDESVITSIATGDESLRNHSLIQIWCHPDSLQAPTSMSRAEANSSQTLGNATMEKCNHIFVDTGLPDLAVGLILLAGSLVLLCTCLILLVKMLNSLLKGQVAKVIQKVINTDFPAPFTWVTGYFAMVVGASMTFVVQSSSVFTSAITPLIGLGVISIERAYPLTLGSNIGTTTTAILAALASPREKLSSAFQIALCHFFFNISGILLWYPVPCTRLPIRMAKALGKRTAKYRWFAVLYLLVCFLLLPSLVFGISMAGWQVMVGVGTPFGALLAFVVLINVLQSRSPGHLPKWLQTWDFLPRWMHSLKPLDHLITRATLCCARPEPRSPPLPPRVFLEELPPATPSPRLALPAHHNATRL
Excerpt: Experiment of Sodium-Dependent Phosphate Uptake of Xenopus oocytes which Expressed NaPi-2a
In the test, a group with the addition of choline chloride (Choline Cl) was used as a negative control for nonspecific uptake, and PFA (phosphonoformic acid) was used as a positive control for phosphate transport inhibition.

IC50 [1] | IC50 [2] | Compound | phosphate uptake inhibitory activity against NaPi-2a ([2]; FIG. 3, FIG. 4)
9.11 µM | – | COc1ccc(C(=O)Nc2ccccc2C(=O)N/N=C/C=C/c2ccccc2)cc1OC [Compound 1, 3,4-Dimethoxy-N-[2-(3-phenyl-allylidene-hydrazinocarbonyl)-phenyl]-benzamide] | concentration-dependent inhibitory activity
< 0.3 µM | 7.4 µM | O=C(Nc1ccc(N2CCCCC2)cc1C(=O)N/N=C/c1cccc(F)c1)c1cccc(CN2CCc3nc4ncccc4cc3C2)c1 [Compound 896, 3-(7,8-Dihydro-5H-1,6,9-triaza-anthracen-6-ylmethyl)-N-[2-(3-fluoro-benzylidene-hydrazinocarbonyl)-4-piperidin-1-yl-phenyl]-benzamide] | –
0.97 µM | 9.57 µM | CC(O)CN(Cc1cccc(C(=O)Nc2sc3ccccc3c2C(=O)N/N=C/c2ccc(F)cc2)c1)CC(C)O (stereo not shown) [Compound 794, 3-{[Bis-(2-hydroxy-propyl)-amino]-methyl}-N-[3-(4-fluoro-benzylidene-hydrazinocarbonyl)-benzo[b]thiophen-2-yl]-benzamide] | –
7.89 µM | 38.1 µM | Cc1ccc(/C=N/NC(=O)c2c(C)csc2NC(=O)c2cccc(CN3CCC4(CC3)OCCO4)c2)cc1 [Compound 833, 3-(1,4-Dioxa-8-aza-spiro[4,5]dec-8-ylmethyl]-N-[4-methyl-3-(4-methyl-benzylidene-hydrazinocarbonyl)-thiophen-2-yl]-benzamide] | –
9.24 µM | 10 µM | O=C(Nc1sc2ccccc2c1C(=O)N/N=C/c1ccc(F)cc1)c1cccc(CN2CCC(CO)CC2)c1 [Compound 800, N-[3-(4-Fluoro-benzylidene-hydrazinocarbonyl)-benzo[b]thiophen-2-yl]-3-(4-hydroxymethyl-piperidin-1-ylmethyl)-benzamide] | –
3.22 µM | 8.19 µM | Cc1csc(NC(=O)c2cccc(CN(C)C)c2)c1C(=O)N/N=C/c1ccc(Cl)c(C(F)(F)F)c1 [Compound 824, N-[3-(4-Chloro-3-trifluoromethyl-benzylidene-hydrazinocarbonyl)-4-methyl-thiophen-2-yl]-3-dimethylaminomethyl-benzamide] | –
0.52 µM | < 1 µM | CCN(CC)CCN(C)Cc1cccc(C(=O)Nc2ccc(N3CCCCC3)cc2C(=O)N/N=C/c2cccc(F)c2)c1 [Compound 861, 3-{[(2-Diethylamino-ethyl)-methyl-amino]-methyl}-N-[2-(3-fluoro-benzylidene-hydrazinocarbonyl)-4-piperidin-1-yl-phenyl]-benzamide] | –
0.81 µM | 2.93 µM | Cc1ccc(/C=N/NC(=O)c2cc(N3CCCCC3)ccc2NC(=O)c2cccc(CSCCC(=O)O)c2)cc1C [Compound 886, 3-{3-[2-(3,4-Dimethyl-benzylidene-hydrazinocarbonyl)-4-piperidin-1-yl-phenylcarbamoyl]-benzylsulfanyl}-propionic acid] | –
1.47 µM | 13.9 µM | O=C(O)CSCc1cccc(C(=O)Nc2ccc(N3CCCCC3)cc2C(=O)N/N=C/c2ccc(Cl)c(C(F)(F)F)c2)c1 [Compound 891, {3-[2-(4-Chloro-3-trifluoromethyl-benzylidene-hydrazinocarbonyl)-4-piperidin-1-yl-phenylcarbamoyl]-benzylsulfanyl}-acetic acid] | –
< 1 µM | < 1 µM | O=C(Nc1ccc(N2CCCCC2)cc1C(=O)N/N=C/c1ccc(Cl)c(C(F)(F)F)c1)c1cccc(CSCC(O)CO)c1 (stereo not shown) [Compound 903, N-[2-(4-Chloro-3-trifluoromethyl-benzylidene-hydrazinocarbonyl)-4-piperidin-1-yl-phenyl]-3-(2,3-dihydroxy-propyl-sulfanylmethyl)-benzamide] | –
< 3 µM | 7.84 µM | Cc1ccc(/C=N/NC(=O)c2cc(F)ccc2NC(=O)c2cccc(CN(CC(C)O)CC(C)O)c2)cc1 (stereo not shown) [Compound 989, 3-{[Bis-(2-hydroxy-propyl)-amino]-methyl}-N-[4-fluoro-2-(4-methyl-benzylidene-hydrazinocarbonyl)-phenyl]-benzamide] | –
< 1 µM | < 1 µM | O=C(Nc1ccc(N2CCCCC2)cc1C(=O)N/N=C/c1ccc(F)cc1)c1cccc(CSCC(O)CO)c1 (stereo not shown) [Compound 901, 3-(2,3-Dihydroxy-propylsulfanylmethyl)-N-[2-(4-fluoro-benzylidene-hydrazinocarbonyl)-4-piperidin-1-yl-phenyl]-benzamide] | –
< 1 µM | 3.53 µM | Cc1ccc(/C=N/NC(=O)c2c(NC(=O)c3cccc(CN(CC(C)O)CC(C)O)c3)sc3c2CCCC3)cc1C (stereo not shown) [Compound 627, 3-{[Bis-(2-hydroxy-propyl)-amino]-methyl}-N-[3-(3,4-dimethyl-benzylidene-hydrazinocarbonyl)-4,5,6,7-tetrahydro-benzo-[b]thiophen-2-yl]-benzamide] | –
1.41 µM | 8.46 µM | Cc1ccc(/C=N/NC(=O)c2c(NC(=O)c3cccc(CN(CC(C)O)CC(C)O)c3)sc3ccccc23)cc1 (stereo not shown) [Compound 793, 3-{[Bis-(2-hydroxy-propyl)-amino]-methyl}-N-[3-(4-methyl-benzylidene-hydrazinocarbonyl)-benzo[b]thiophen-2-yl]-benzamide] | –
1.16 µM | 9.28 µM | Cc1csc(NC(=O)c2cccc(CN(CCO)CCO)c2)c1C(=O)N/N=C/c1cccc(F)c1 [Compound 789, 3-{[Bis-(2-hydroxy-ethyl)-amino]-methyl}-N-[3-(3-fluoro-benzylidene-hydrazinocarbonyl)-4-methyl-thiophen-2-yl]-benzamide] | –
1.84 µM | 11.1 µM | Cc1ccc(/C=N/NC(=O)c2c(NC(=O)c3cccc(CN4CCC(CO)CC4)c3)sc3c2CCCC3)cc1C [Compound 639, N-[3-(3,4-Dimethyl-benzylidene-hydrazinocarbonyl)-4,5,6,7-tetrahydro-benzo[b]thiophen-2-yl]-3-(4-hydroxymethyl-piperidin-1-ylmethyl)-benzamide] | –
< 1 µM | 2.43 µM | CC(O)CN(Cc1cccc(C(=O)Nc2sc3c(c2C(=O)N/N=C/c2ccc(Cl)c(C(F)(F)F)c2)CCCC3)c1)CC(C)O (stereo not shown) [Compound 631, 3-{[Bis-(2-hydroxy-propyl)-amino]-methyl}-N-[3-(4-chloro-3-trifluoromethyl-benzylidene-hydrazinocarbonyl)-4,5,6,7-tetrahydro-benzo[b]thiophen-2-yl]-benzamide] | –
< 3 µM | 7.14 µM | COc1ccc(/C=N/NC(=O)c2cc(F)ccc2NC(=O)c2cccc(CN(CC(C)O)CC(C)O)c2)cc1 (stereo not shown) [Compound 990, 3-{[Bis-(2-hydroxy-propyl)-amino]-methyl}-N-[4-fluoro-2-(4-methoxy-benzylidene-hydrazinocarbonyl)-phenyl]-benzamide] | –
19 µM | 52.1 µM | Cc1csc(NC(=O)c2cccc(CN3CCC4(CC3)OCCO4)c2)c1C(=O)N/N=C/c1ccc(F)cc1 [Compound 834, 3-(1,4-Dioxa-8-aza-spiro[4,5]dec-8-ylmethyl]-N-[3-(4-fluoro-benzylidene-hydrazinocarbonyl)-4-methyl-thiophen-2-yl]-benzamide] | –
0.46 µM | < 1 µM | CCN(CC)CCN(C)Cc1cccc(C(=O)Nc2ccc(N3CCCCC3)cc2C(=O)N/N=C/c2ccc(C)c(C)c2)c1 [Compound 858, 3-{[(2-Diethylamino-ethyl)-methyl-amino]-methyl}-N-[2-(3,4-dimethyl-benzylidene-hydrazinocarbonyl)-4-piperidin-1-ylphenyl]-benzamide] | –
